Structures can show the parent of a compound that is named as a salt. Where two headings read alike, the source gives them in different places. Values belong to the compound of their own block, whether it stands above or below them.
How the values were obtained:
[1] = Systemic exposure and pharmacokinetics after single oral gavage dose of 200 mg/kg in fasted male SD rats; format: in vivo, Sprague Dawley (SD) rats; settings: for Fold difference in plasma concentration compared to micronized free-base form: 30 hours post-dose; for Increase of systemic drug exposure in AUC0-t compared with micro MBX-2982 (free base): equivalent amounts
Method: Two studies were conducted in order to compare the systemic exposure and pharmacokinetics (PK) of microcrystalline MBX-2982 and salt forms of MBX-2982 in fasted male Sprague Dawley (SD) rats following single oral gavage (PO) doses of 200 mg/kg. Four salt foms of MBX-2982 were investigate in the studies. The tested salts were HCl Form I, HCl salt Form II, mesylate salt and the tosylate salt.
Preparation of samples was performed by solvent precipitation of plasma proteins in a 1 mL/well 96-well plate. Standards were prepared by spiking 10 μL of blank plasma with 10 μL of standard solution (acetonitrile containing MBX-2982 at 0.01, 0.02, 0.05, 0.1, 0.2, 0.5, 1, 2, 5, 10, 20, 50 and 100 μg/mL) and 300 μL of 0.1% formic acid in acetonitrile containing 0.2 μg/mL internal standard. Plasma samples were prepared by adding 10 μL of plasma sample, 10 μL of acetonitrile, and 300 μL of 0.2 μg/mL internal standard in 0.1% formic acid in acetonitrile. After addition of the organic solvents, all samples were vortexed briefly and centrifuged at 3600 rpm for 10 minutes. Some of the samples were diluted 1.3 to 2-fold with blank plasma. An aliquot of the supernatant (25 μL) was transfer to a 1 mL/well 96-well plate and mixed with 200 μL water/ACN (50/50, v/v) and injected into the HPLC.
The suspensions for microcrystalline MBX-2982 (free base) and salt forms of MBX-2982 were prepared in 1% carboxymethylcellulose and 2% tween 80 in water (w/w/v).
Five groups of animals were given microcrystalline and salt forms suspension doses of MBX-2982 orally at 200 mg/kg, respectively. Food was withheld the night before dose and returned nine hours after dosing. Blood samples were collected at 0.25, 0.5, 1, 2, 4, 6, 9, 24, 30 and 48 h post dose. MBX-2982 plasma concentration from these samples was analyzed by a non-validated high performance liquid chromatography in conjunction with mass spectrometry (LC-MS/MS) method.
Plasma concentration-time data for individual animals were analyzed using WinNonlin software (Professional, version 5.0.1; Pharsight Corp.). A non-compartmental model (model 200) was used. Peak area ratios of MBX-2982 to internal standard and concentration were fitted to a quadratic equation (Calibration Curve) with 1/x weighting using a quadratic regression program in Analyst version 1.4.2 (Applied Biosystem Inc). The equations were then used to interpolate the concentrations of MBX-2982 in samples from peak area to internal standard ratio.
The following pharmacokinetic parameters were calculated: • 1) Cmax: Maximum (peak) plasma concentration • 2) Tmax: Time at which Cmax occurred • 3) t1/2: Terminal phase half-life • 4) AUC0-t: Area under the concentration-time curve from time 0 to last measurable concentration • 5) AUC0-inf: Area under the concentration-time curve from time 0 extrapolated to infinity

[2] = Moisture sorption of HCl Form I; format: physicochemical
Excerpt: A steady ˜0.9 wt % gain was observed between ˜5% and ˜95% RH. A complete desorption occurred upon decreasing relative humidity to ˜5% (˜0.9 wt % loss between ˜95% and ˜5% RH).

[3] = Overnight / elevated RH stress of the crystalline salts; format: physicochemical; settings: overnight / elevated relative humidity stress
[4] = fasted male SD rats, single PO dose 200 mg/kg, mean ± SD

Mean plasma concentration of MBX-2982 ([1]; 0.5 h post dose, fasted male SD rats, PO 200 mg/kg, mean ± SD, hydrochloride): 9790 ± 3730 ng/mL
Mean plasma concentration of MBX-2982 ([1]; 1 h post dose, fasted male SD rats, PO 200 mg/kg, mean ± SD, hydrochloride): 15500 ± 3150 ng/mL
Mean plasma concentration of MBX-2982 ([1]; 2 h post dose, fasted male SD rats, PO 200 mg/kg, mean ± SD, hydrochloride): 24200 ± 3350 ng/mL
Mean plasma concentration of MBX-2982 ([1]; 4 h post dose, fasted male SD rats, PO 200 mg/kg, mean ± SD, hydrochloride): 31400 ± 7100 ng/mL
Mean plasma concentration of MBX-2982 ([1]; 6 h post dose, fasted male SD rats, PO 200 mg/kg, mean ± SD, hydrochloride): 28100 ± 8460 ng/mL
Mean plasma concentration of MBX-2982 ([1]; 9 h post dose, fasted male SD rats, PO 200 mg/kg, mean ± SD, hydrochloride): 23800 ± 6990 ng/mL
Mean plasma concentration of MBX-2982 ([1]; 24 h post dose, fasted male SD rats, PO 200 mg/kg, mean ± SD, hydrochloride): 7430 ± 9630 ng/mL
Mean plasma concentration of MBX-2982 ([1]; 24 h post dose, fasted male SD rats, PO 200 mg/kg, mean ± SD, listed as HCl form I, hydrochloride): 7300 ng/mL
Fold difference in plasma concentration compared to micronized free-base form ([1]; male SD rats, PO 200 mg/kg, listed as HCl form I, hydrochloride): 94 fold
Mean plasma concentration of MBX-2982 ([1]; 30 h post dose, fasted male SD rats, PO 200 mg/kg, mean ± SD, hydrochloride): 7520 ± 12630 ng/mL
Mean plasma concentration of MBX-2982 ([1]; 48 h post dose, fasted male SD rats, PO 200 mg/kg, mean ± SD, hydrochloride): 1080 ± 2310 ng/mL
Increase of systemic drug exposure in AUC0-t compared with micro MBX-2982 (free base) ([1]; male SD rats, PO 200 mg/kg, hydrochloride): 2.4 fold
concentration at 30 h ([1]; male, Sprague-Dawley, rat, plasma, po, 30 h post dose, male SD rats, PO 200 mg/kg, read-out: Plasma level at 30 hours post-dose): 7.52 ng/mL
half-life ([1]; male, Sprague-Dawley, rat, plasma, po, fasted male SD rats, single PO dose 200 mg/kg, mean ± SD): 4.01 ± 1.68 h
AUC(0-t) ([1]; male, Sprague-Dawley, rat, plasma, po, fasted male SD rats, single PO dose 200 mg/kg, mean ± SD, read-out: AUC0-24): 454 ± 98.4 µg·h/mL
AUC0-inf ([1]; male, Sprague-Dawley, rat, plasma, po, fasted male SD rats, single PO dose 200 mg/kg, mean ± SD, read-out: AUC0-inf): 536 ± 29.9 µg·h/mL
AUC(0-t) ([1]; male, Sprague-Dawley, rat, plasma, po, fasted male SD rats, single PO dose 200 mg/kg, mean ± SD, read-out: AUC0-t): 571 ± 249 µg·h/mL
Cmax ([1]; male, Sprague-Dawley, rat, plasma, po, fasted male SD rats, single PO dose 200 mg/kg, mean ± SD, read-out: Cmax): 31200 ± 7410 ng/mL
Tmax ([1]; male, Sprague-Dawley, rat, plasma, po, fasted male SD rats, single PO dose 200 mg/kg, mean ± SD, read-out: Tmax): 7.25 ± 9.25 h
Weight gain on sorption ([2]; between ~5% and ~95% RH): ~0.9 wt %
Weight loss on desorption ([2]; between ~95% and ~5% RH): ~0.9 wt %
Weight loss upon equilibration ([2]; equilibration at ~5% RH): ~0.3 wt %
Compound: CCc1cnc(N2CCC(c3nc(COc4ccc(-n5cnnn5)cc4)cs3)CC2)nc1.Cl [HCl Salt Form I, 5-ethyl-2-{4-[4-(4-tetrazol-1-yl-phenoxymethyl)-thiazol-2-yl]-piperidin-1-yl}-pyrimidine hydrochloride]

Mean plasma concentration of MBX-2982 ([1]; 0.5 h post dose, fasted male SD rats, PO 200 mg/kg, mean ± SD): 10100 ± 2450 ng/mL
Mean plasma concentration of MBX-2982 ([1]; 1 h post dose, fasted male SD rats, PO 200 mg/kg, mean ± SD): 13000 ± 3330 ng/mL
Mean plasma concentration of MBX-2982 ([1]; 2 h post dose, fasted male SD rats, PO 200 mg/kg, mean ± SD): 19700 ± 2550 ng/mL
Mean plasma concentration of MBX-2982 ([1]; 4 h post dose, fasted male SD rats, PO 200 mg/kg, mean ± SD): 23600 ± 6900 ng/mL
Mean plasma concentration of MBX-2982 ([1]; 6 h post dose, fasted male SD rats, PO 200 mg/kg, mean ± SD): 20300 ± 11200 ng/mL
Mean plasma concentration of MBX-2982 ([1]; 9 h post dose, fasted male SD rats, PO 200 mg/kg, mean ± SD): 18600 ± 10550 ng/mL
Mean plasma concentration of MBX-2982 ([1]; 24 h post dose, fasted male SD rats, PO 200 mg/kg, mean ± SD): 4200 ± 5510 ng/mL
Mean plasma concentration of MBX-2982 ([1]; 24 h post dose, fasted male SD rats, PO 200 mg/kg, mean ± SD, listed as tosylate): 4200 ng/mL
Fold difference in plasma concentration compared to micronized free-base form ([1]; male SD rats, PO 200 mg/kg): 40 fold
Mean plasma concentration of MBX-2982 ([1]; 30 h post dose, fasted male SD rats, PO 200 mg/kg, mean ± SD): 3180 ± 5880 ng/mL
Mean plasma concentration of MBX-2982 ([1]; 30 h post dose, fasted male SD rats, PO 200 mg/kg, mean ± SD, listed as tosylate): 3180 ng/mL
Mean plasma concentration of MBX-2982 ([1]; 48 h post dose, fasted male SD rats, PO 200 mg/kg, mean ± SD): 20 ± 10 ng/mL
AUC0-24 [1, 4]: 342 ± 117 µg·h/mL
AUC0-inf [1, 4]: 393 ± 98.1 µg·h/mL
AUC(0-t) [1, 4]: 392 ± 98.2 µg·h/mL
Cmax [1, 4]: 26100 ± 7980 ng/mL
Tmax [1, 4]: 4.00 ± 1.63 h
t1/2 [1, 4]: 3.20 ± 0.88 h
Increase of systemic drug exposure in AUC0-t compared with micro MBX-2982 (free base) ([1]; male SD rats, PO 200 mg/kg): 1.7 fold
Appearance of the material after RH stress [3]: remained a free flowing powder
Compound: CCc1cnc(N2CCC(c3nc(COc4ccc(-n5cnnn5)cc4)cs3)CC2)nc1 [Tosylate Salt, 5-ethyl-2-{4-[4-(4-tetrazol-1-yl-phenoxymethyl)-thiazol-2-yl]-piperidin-1-yl}-pyrimidine]

From patent US9150567B2, “Substituted tetrazol-1-yl-phenoxymethyl-thiazol-2-yl-piperidinyl-pyrimidine salts” (CYMABAY THERAPEUTICS, INC., priority 2009, dated 2015)
